From patent US7700782B2, “Compounds 569” (AstraZeneca AB, priority 2007, dated 2010)
Structures can show the parent of a compound that is named as a salt.

Target: T1, Adrenergic β2 (Homo sapiens, UniProt P07550)
T1 construct: Adherent H292 cells were removed from tissue culture flasks; endogenous in cells; host or cells: H292 cells
Test: Adrenergic β2 mediated cAMP production in H292 cells (AlphaScreen cAMP detection)
Assay type: cell-based
Conditions: Intrinsic Activity, fraction relative to the maximum activity determined for formoterol
Method: Adrenergic β2 Mediated cAMP Production
H292 cells were grown in 225 cm2 flasks incubator at 37° C., 5% CO2 in RPMI medium containing, 10% (v/v) FBS (foetal bovine serum) and 2 mM L-glutamine.
Adherent H292 cells were removed from tissue culture flasks by treatment with Accutase™ cell detachment solution for 15 minutes. Flasks were incubated for 15 minutes in a humidified incubator at 37° C., 5% CO2. Detached cells were re-suspended in RPMI media (containing 10% (v/v) FBS and 2 mM L-glutamine) at 0.05×10^6 cells per mL. 5000 cells in 100 μL were added to each well of a tissue-culture-treated 96-well plate and the cells incubated overnight in a humidified incubator at 37° C., 5% CO2. The culture media was removed and cells were washed twice with 100 μL assay buffer and replaced with 50 μL assay buffer (HBSS solution containing 10 mM HEPES pH 7.4 and 5 mM glucose). Cells were rested at room temperature for 20 minutes after which time 25 μL of rolipram (1.2 mM made up in assay buffer containing 2.4% (v/v) dimethylsulphoxide) was added. Cells were incubated with rolipram for 10 minutes after which time test compounds were added and the cells were incubated for 60 minutes at room temperature. The final rolipram concentration in the assay was 300 μM and final vehicle concentration was 1.6% (v/v) dimethylsulphoxide. The reaction was stopped by removing supernatants, washing once with 100 μL assay buffer and replacing with 50 μL lysis buffer. The cell monolayer was frozen at −80° C. for 30 minutes (or overnight).
The concentration of cAMP (cyclic adenosine monophosphate) in the cell lysate was determined using AlphaScreen™ methodology. The frozen cell plate was thawed for 20 minutes on a plate shaker then 10 μL of the cell lysate was transferred to a 96-well white plate. 40 μL of mixed AlphaScreen™ detection beads pre-incubated with biotinylated cAMP, was added to each well and the plate incubated at room temperature for 10 hours in the dark. The AlphaScreen™ signal was measured using an EnVision spectrophotometer (Perkin-Elmer Inc.) with the recommended manufacturer's settings. cAMP concentrations were determined by reference to a calibration curve determined in the same experiment using standard cAMP concentrations. Concentration response curves for agonists were constructed and data was fitted to a four parameter logistic equation to determine both the pEC50 and Intrinsic Activity. Intrinsic Activity was expressed as a fraction relative to the maximum activity determined for formoterol in each experiment.

T1 sequence (P07550 whole entry): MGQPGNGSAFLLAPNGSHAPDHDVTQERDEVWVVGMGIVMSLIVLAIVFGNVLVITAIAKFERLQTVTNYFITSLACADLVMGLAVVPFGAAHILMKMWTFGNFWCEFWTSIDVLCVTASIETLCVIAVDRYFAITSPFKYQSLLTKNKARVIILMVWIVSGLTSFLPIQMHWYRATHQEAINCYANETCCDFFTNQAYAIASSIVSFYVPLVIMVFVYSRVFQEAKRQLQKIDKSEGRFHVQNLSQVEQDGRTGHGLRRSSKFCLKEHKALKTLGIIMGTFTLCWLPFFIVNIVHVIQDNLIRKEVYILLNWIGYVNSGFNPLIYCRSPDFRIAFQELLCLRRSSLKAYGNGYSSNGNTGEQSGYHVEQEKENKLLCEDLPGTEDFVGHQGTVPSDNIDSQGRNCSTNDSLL

| SMILES | β2 Int Act |
| --- | --- |
| CC(C)(CO)CN(CCNCCc1ccc(O)c2[nH]c(=O)sc12)C(=O)CCNCCc1cccc(Cl)c1Cl [Example 67, N^3-[2-(2,3-Dichlorophenyl)ethyl]-N^1-(3-hydroxy-2,2-dimethylpropyl)-N^1-(2-{[2-(4-hydroxy-2-oxo-2,3-dihydro-1,3-benzothiazol-7-yl)ethyl]amino}ethyl)-β-alaninamide bis-trifluoroacetic acid salt] | 0.70 |
| O=C(NCc1ccccc1)c1ccc(CCNCCC(=O)N(CCNCCc2ccc(O)c3[nH]c(=O)sc23)C2CCCCCC2)cc1 [Example 100, N-Benzyl-4-[2-({3-[cycloheptyl(2-{[2-(4-hydroxy-2-oxo-2,3-dihydro-1,3-benzothiazol-7-yl)ethyl]amino}ethyl)amino]-3-oxopropyl}amino)ethyl]benzamide bis-trifluoroacetic acid salt] | 0.81 |
| O=C(CCNCCc1nc2ccccc2[nH]1)N(CCNCCc1ccc(O)c2[nH]c(=O)sc12)C1CCCCC1 [Example 77, N^3-[2-(1H-Benzimidazol-2-yl)ethyl]-N^1-cyclohexyl-N^1-(2-{[2-(4-hydroxy-2-oxo-2,3-dihydro-1,3-benzothiazol-7-yl)ethyl]amino}ethyl)-β-alaninamide tris-trifluoroacetic acid salt] | 0.54 |
| O=C(CCNCCc1ccc(Cl)c(Cl)c1)N(CCNCCc1ccc(O)c2[nH]c(=O)sc12)C1CCOCC1 [Example 24, N^3-[2-(3,4-Dichlorophenyl)ethyl]-N-(2-{[2-(4-hydroxy-2-oxo-2,3-dihydro-1,3-benzothiazol-7-yl)ethyl]amino}ethyl)-N-(tetrahydro-2H-pyran-4-yl)-β-alaninamide bis-trifluoroacetic acid salt] | 0.77 |
| O=C(CCNC[C@H](O)c1ccccc1)N(CCNCCc1ccc(O)c2[nH]c(=O)sc12)C1CCCCC1 [Example 75, N^1-Cyclohexyl-N^1-(2-{[2-(4-hydroxy-2-oxo-2,3-dihydro-1,3-benzothiazol-7-yl)ethyl]amino}ethyl)-N^3-[(2R)-2-hydroxy-2-phenylethyl]-β-alaninamide bis-trifluoroacetic acid salt] | 0.91 |
| CC(CN(C(=O)CCNCCc1cccc(F)c1)C1CCCCCC1)NCCc1ccc(O)c2[nH]c(=O)sc12 (stereo not drawn) [Example 104, N-Cycloheptyl-N^3-[2-(3-fluorophenyl)ethyl]-N-(2-{[2-(4-hydroxy-2-oxo-2,3-dihydro-1,3-benzothiazol-7-yl)ethyl]amino}propyl)-β-alaninamide bis-trifluoroacetic acid salt] | 0.81 |
| O=C(CCNCCc1ccc(F)cc1)N(CCNCCc1ccc(O)c2[nH]c(=O)sc12)CC12CC3CC(CC(C3)C1)C2 [Example 61, N^1-(1-Adamantylmethyl)-N^3-[2-(4-fluorophenyl)ethyl]-N^1-(2-{[2-(4-hydroxy-2-oxo-2,3-dihydro-1,3-benzothiazol-7-yl)ethyl]amino}ethyl)-β-alaninamide bis-trifluoroacetic acid salt] | 0.79 |
| O=C(CCNCCc1ccccc1)N(CCNCCc1ccc(O)c2[nH]c(=O)sc12)C1Cc2ccccc2C1 [Example 41, N^1-(2,3-Dihydro-1H-inden-2-yl)-N^1-(2-{[2-(4-hydroxy-2-oxo-2,3-dihydro-1,3-benzothiazol-7-yl)ethyl]amino}ethyl)-N^3-(2-phenylethyl)-β-alaninamide bis-trifluoroacetic acid salt] | 0.99 |
| C[C@H](CNCCC(=O)N(CCNCCc1ccc(O)c2[nH]c(=O)sc12)C1CCCC1)c1ccccc1 [Example 31, N-cyclopentyl-N-(2-{[2-(4-hydroxy-2-oxo-2,3-dihydro-1,3-benzothiazol-7-yl)ethyl]amino}ethyl)-N^3-[(2S)-2-phenylpropyl]-β-alaninamide bis-trifluoroacetic acid salt] | 0.92 |
| Cc1ccccc1CCNCCC(=O)N(CCNCCc1ccc(O)c2[nH]c(=O)sc12)C1CCOCC1 [Example 27, N-(2-{[2-(4-Hydroxy-2-oxo-2,3-dihydro-1,3-benzothiazol-7-yl)ethyl]amino}ethyl)-N^3-[2-(2-methylphenyl)ethyl]-N-(tetrahydro-2H-pyran-4-yl)-β-alaninamide bis-trifluoroacetic acid salt] | 0.95 |

Further lines, results first:

| β2 Int Act | SMILES |
| --- | --- |
| 0.81 | O=C(CCNCCc1ccc(F)cc1F)N(CCNCCc1ccc(O)c2[nH]c(=O)sc12)C1CCCCCC1 [Example 55, N^1-Cycloheptyl-N^3-[2-(2,4-difluorophenyl)ethyl]-N^1-(2-{[2-(4-hydroxy-2-oxo-2,3-dihydro-1,3-benzothiazol-7-yl)ethyl]amino}ethyl)-β-alaninamide bis-trifluoroacetic acid salt] |
| 0.59 | O=C(CCNCCc1ccc(Cl)c(Cl)c1)N(CCNCCc1ccc(O)c2[nH]c(=O)sc12)C1CCC(F)(F)CC1 [Example 49, N^3-[2-(3,4-Dichlorophenyl)ethyl]-N^1-(4,4-difluorocyclohexyl)-N^1-(2-{[2-(4-hydroxy-2-oxo-2,3-dihydro-1,3-benzothiazol-7-yl)ethyl]amino}ethyl)-β-alaninamide bis-trifluoroacetic acid salt] |
| 0.91 | O=C(CCNCCc1ccc(F)cc1)N(CCNCCc1ccc(O)c2[nH]c(=O)sc12)C1CCCCC1 [Example 16, N-Cyclohexyl-N^3-[2-(4-fluorophenyl)ethyl]-N-(2-{[2-(4-hydroxy-2-oxo-2,3-dihydro-1,3-benzothiazol-7-yl)ethyl]amino}ethyl)-β-alaninamide bis-trifluoroacetic acid salt] |
| 0.43 | COc1ccc(CCNCCC(=O)N(CCNCCc2ccc(O)c3[nH]c(=O)sc23)C2CCCCCC2)cc1OC [Example 86, N^1-Cycloheptyl-N^3-[2-(3,4-dimethoxyphenyl)ethyl]-N^1-(2-{[2-(4-hydroxy-2-oxo-2,3-dihydro-1,3-benzothiazol-7-yl)ethyl]amino}ethyl)-β-alaninamide bis-trifluoroacetic acid salt] |
| 0.84 | O=C(CCNCCc1cc(F)cc(F)c1)N(CCNCCc1ccc(O)c2[nH]c(=O)sc12)C1CCCCCC1 [Example 58, N^1-Cycloheptyl-N^3-[2-(3,5-difluorophenyl)ethyl]-N^1-(2-{[2-(4-hydroxy-2-oxo-2,3-dihydro-1,3-benzothiazol-7-yl)ethyl]amino}ethyl)-β-alaninamide bis-trifluoroacetic acid salt] |
| 0.84 | COc1cccc(CCNCCC(=O)N(CCNCCc2ccc(O)c3[nH]c(=O)sc23)C2CCCCC2)c1 [Example 70, N^1-Cyclohexyl-N^1-(2-{[2-(4-hydroxy-2-oxo-2,3-dihydro-1,3-benzothiazol-7-yl)ethyl]amino}ethyl)-N^3-[2-(3-methoxyphenyl)ethyl]-β-alaninamide bis-trifluoroacetic acid salt] |
| 0.55 | O=C(CCNCCc1ccc(Cl)cc1)N(CCNCCc1ccc(O)c2[nH]c(=O)sc12)C1CCC(F)(F)CC1 [Example 48, N^3-[2-(4-Chlorophenyl)ethyl]-N^1-(4,4-difluorocyclohexyl)-N^1-(2-{[2-(4-hydroxy-2-oxo-2,3-dihydro-1,3-benzothiazol-7-yl)ethyl]amino}ethyl)-β-alaninamide bis-trifluoroacetic acid salt] |
| 0.84 | O=C(CCNCCc1cc(F)ccc1F)N(CCNCCc1ccc(O)c2[nH]c(=O)sc12)C1CCCCC1 [Example 79, N^1-Cyclohexyl-N^3-[2-(2,5-difluorophenyl)ethyl]-N^1-(2-{[2-(4-hydroxy-2-oxo-2,3-dihydro-1,3-benzothiazol-7-yl)ethyl]amino}ethyl)-β-alaninamide bis-trifluoroacetic acid salt] |
| 0.86 | O=C(CCNCCc1cccc(F)c1F)N(CCNCCc1ccc(O)c2[nH]c(=O)sc12)C1CCCCCC1 [Example 56, N^1-Cycloheptyl-N^3-[2-(2,3-difluorophenyl)ethyl]-N^1-(2-{[2-(4-hydroxy-2-oxo-2,3-dihydro-1,3-benzothiazol-7-yl)ethyl]amino}ethyl)-β-alaninamide bis-trifluoroacetic acid salt] |
| 0.72 | O=C(CCNCCc1ccc(F)cc1Cl)N(CCNCCc1ccc(O)c2[nH]c(=O)sc12)C1CCCCCC1 [Example 57, N^3-[2-(2-Chloro-4-fluorophenyl)ethyl]-N^1-cycloheptyl-N^1-(2-{[2-(4-hydroxy-2-oxo-2,3-dihydro-1,3-benzothiazol-7-yl)ethyl]amino}ethyl)-β-alaninamide bis-trifluoroacetic acid salt] |
